One data set deals with Aβ42 oligomers. As to the kind of experiment: QIAD assay (Aβ42 aggregate size distribution, oligomer elimination). The data set is classed as biochemical. The note with it: 20 μM peptide added to 80 μM Aβ42 (pre-incubated 2 h), 30 min; density gradient, RP-HPLC UV 214 nm; n = 3. Here is the method: In order to evaluate the efficacy of the peptides in eliminating Aβ42 oligomers, QIAD assays were performed.[39] Briefly, lyophilized Aβ42 (80 μM) was incubated for 2 h in sodium phosphate buffer for Aβ42 oligomerization. Then, each peptide (20 μM) was added to the Aβ42 solution and incubated for 30 min. Finally, samples were added on top of an iodixanol density gradient (5–50% (w/v) (OptiPrep, Sigma-Aldrich, Darmstadt, Germany) and centrifuged for 3 h at 4 °C and 259,000 x g (Optima TL-100, Beckman Coulter, Brea, CA, USA). For the sample analysis, 14 fractions (140 μL each) were collected from top to bottom. The top fractions, named fractions 1–2, contained Aβ42-monomers; fractions 4–6 contained the Aβ42-oligomers, which are of special interest; and the bottom fractions 11–14 contained high molecular weight of aggregated Aβ42. Each density gradient fraction was analyzed by Reversed Phase Liquid Chromatography. For this an Agilent 1260 Infinity II (Santa Clara, California, USA) system was equipped with an Agilent Zorbax SB-300 C-8 5 μm, 4.6 × 250 mm Column (Santa Clara, California, USA) and a multi-wavelength detector set to acquire the UV absorbance at 214 nm. H2O + 0.1% trifluoroacetic acid (AppliChem, Darmstadt, Germany) and acetonitrile (Roth, Karlsruhe, Germany) + 0.1% trifluoroacetic acid were used as eluent A and B, respectively. The acquisition method consisted of an initial isocratic step at 15% B, followed by a gradient from 15% B to 45% B in 10 min and another isocratic step at 45% B. The column temperature was set to 80 °C for the entire analysis. This method ensured full separation of the iodixanol density gradient medium and Aβ42 in all fractions. Aβ42 peaks were analyzed and integrated by the Agilent OpenLab 2.5 software. All measurements were performed in triplicate (n = 3), and data are presented as mean ± SM.

The subject of the next data set is Aβ42 aggregates. As to the kind of experiment: sFIDA assay of Aβ42 aggregate elimination. The class given is biochemical. To be noted: n = 3; for sFIDA signal reduction compared with the control: 50 nM peptide, 1 nM Aβ42 aggregates, overnight, room temperature, PBS, TIRFM pixel count. Here is the method: To determine the influence of peptides on Aβ42 aggregates, an sFIDA assay was performed. The principle was previously described.[29] Therefore, we used pretreated 384 glass bottom microtiterplates (Sensoplate plus, Greiner Bio-One GmbH, Frickenhausen, Germany) to immobilize the capture-antibody Nab228 (Sigma-Aldrich, St. Louis, Missouri, USA) in a concentration of 2.5 μg/mL in 0.1 M carbonate buffer (Carl Roth, Karlsruhe, Germany). After an overnight incubation at 4 °C, the plate was washed five times with TBS and blocked with 80 μL of a 0.5% BSA solution in TBS with 0.03% ProClin 300 (Sigma-Aldrich, St. Louis, Mo, USA) for 1.5 h at room temperature.
The influence of 50 nM CDPs on 1 nM Aβ42 aggregates (prepared according to Ref ([70])) in PBS was determined by incubating them overnight at room temperature and 600 rpm. As a control, the same Aβ42 aggregates concentration was incubated without additions of peptides; instead, the buffer was added to contain the same end concentrations. The plate was washed as previously described, and 20 μL each of the peptide solution and a serial dilution of Aβ42 aggregates standards in PBS were added and incubated for 2 h at room temperature.
Afterward, 20 μL of 0.625 μg/mL IC-16 CF633 (Heinrich Heine Universität Düsseldorf, Germany) in TBS with 0.1% BSA was added to each well and incubated for 1 h at room temperature. This red fluorescently labeled detection antibody was labeled with CF633 succinimidyl ester (Sigma-Aldrich, St. Louis, Missouri, USA) after the manufacturer’s protocol. After a washing step to remove the redundant antibodies, 80 μL of TBS containing 0.03% Proclin were added.
By using a total internal reflection microscopy (TIRFM) (Leica Camera AG, Wetzlar, Germany), measurement (excitation: 635 nm, emission filter: 705/22 nm) was carried out with an oil immersion objective in 100× magnifications as previously described by Kass et al. 2022, and for each well, 25 of 14-bit grayscale images were measured with a size of 1000 × 1000 pixel each. […]

The next data set deals with T1, Aβ42 (Homo sapiens, UniProt P05067).
T1 construct: purchased Bachem, Bubendorf, Switzerland
T1 sequence (P05067 672-713 limits assumed): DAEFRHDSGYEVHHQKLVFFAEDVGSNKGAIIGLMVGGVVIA
Nature of the data set: Thioflavin T (ThT) assay of Aβ42 aggregation. The class given is biochemical. To be noted: 28 μM peptide, 10 μM Aβ42, 5 μM ThT, 24 h, room temperature; mean of n = 3. The procedure: To evaluate the ability of the peptides to prevent Aβ42 aggregation, a ThT assay was performed. Aβ42 (10 μM), ThT (5 μM), and the peptides (28 μM) were incubated in 96-well plates for 24 h at room temperature in a plate reader (Clariostar, BMG Labtech, Ortenberg, Germany). During this time, the ThT fluorescence was measured every 6 minutes with an excitation of 440 nm and emission of 490 nm. The data were corrected considering the blank wells (without Aβ42 and the peptides). None of the peptides interact with ThT alone or has autofluorescence properties. All measurements were performed in triplicate (n = 3), and data are presented as mean ± SM.
Different concentrations were titrated to investigate CDP-1 and -2 dose dependency on the Aβ42 aggregate formation, and a ThT assay was performed as described before. The effect of 0, 0.5, 1, 3, 6, 13, and 28 μM peptides was tested against 10 μM Aβ42 over 24 h. All experiments were performed in triplicate (n = 3), and data are presented as mean ± SM.

For a further data set, the system named is SH-SY5Y cells. Nature of the data set: MTT cell viability assay, SH-SY5Y. The class given is cell-based, human. To be noted: 20 and 40 μM peptide, overnight, n = 3. The procedure:
(§1) The cell viability assay was performed using the reduction of [3-(4,5-dimethylthiazol-2-yl)-2,5-diphenyl tetrazolium bromide-MTT] (Merck, Darmstadt, Germany) to investigate the cytotoxicity of the CDPs against SH-SY5Y (human neuroblastoma) and HEK293 (human embryonic kidney) cells. Both cell lines were purchased from the Leibniz Institute DSMZ-German collection of microorganisms and cell cultures GmbH. HEK293 cells were cultivated in Dulbecco’s modified Eagle’s medium high glucose (Merck, Darmstadt, Germany) containing 2% antibiotic solution of 10 000 units Penicillin, 10 mg streptomycin/ml (Merck, Darmstadt, Germany), and 10% fetal bovine serum (Merck, Darmstadt, Germany) at 37 °C with 5% CO2. […]
(§2) According to the manufacturer’s instructions, cell viability was measured using the Cell Proliferation Kit I (Roche, Basel, Switzerland). The absorbance of the formazan product was determined by measuring the absorption at 570 nm and subtracted from the absorbance at 660 nm.
(§3) The SH-SY5Y cells with a density of 10 000 cells (for HEK293 5000 cells) per well (total volume of 100 μL) were added to each well of a 96-well tissue culture plate (VWR North American) and incubated overnight at 37 °C with 5% CO2. […] Finally, the absorbance was measured at 570 and 660 nm using a CLARIO star plate reader (BMG labtech, Ortenberg, Germany), and the cell viability was calculated using eq 2: [drawing 2] […]
Background: Tetrazolium dyes change colour on reduction, which living cells bring about.

In another data set the test system is HEK293 cells. Nature of the data set: MTT cell viability assay, HEK293. The class given is cell-based, human. The note with it: 20 and 40 μM peptide, overnight, n = 3. The procedure:
as §1, §2, §3

Non-standard residues stand in square brackets, D forms with d. Residues, ends and D or L forms follow the SMILES beside them.

As for `COC(=O)[C@@H](CCCCN)NC(=O)[C@@H](CCSC)NC(=O)[C@@H](CC(=O)O)NC(=O)[C@@H](CS)NC(=O)[C@@H](CCCNC(=N)N)NC(=O)[C@@H](Cc1c[nH]c2ccccc12)NC(=O)[C@@H](CCCNC(=N)N)NC(=O)[C@@H](Cc1c[nH]c2ccccc12)NC(=O)[C@@H](CCCCN)NC(=O)[C@@H](CS)NC(=O)[C@@H](CS)NC(=O)[C@@H](CCCCN)NC(=O)[C@@H](CCCCN)NC(C)=O` [CDP-1D] (Ac-[dK][dK][dC][dC][dK][dW][dR][dW][dR][dC][dD][dM][dK]-OMe; N-terminus and C-terminus assumed), the “Aβ42 in QIAD fraction 6 (oligomers)” value with Aβ42 oligomers was “significant reduction”. The “sFIDA effect on Aβ42 aggregates” value in the data set with Aβ42 aggregates (Aβ42 aggregates treated with peptide, TIRFM) was “decrease in aggregates”.
On to `COC(=O)[C@H](CCCCN)NC(=O)[C@H](CCCCN)NC(=O)[C@H](CS)NC(=O)[C@H](CS)NC(=O)[C@H](CCCCN)NC(=O)[C@H](Cc1c[nH]c2ccccc12)NC(=O)[C@H](CCCNC(=N)N)NC(=O)[C@H](Cc1c[nH]c2ccccc12)NC(=O)[C@H](CCCNC(=N)N)NC(=O)[C@H](CS)NC(=O)[C@H](CC(=O)O)NC(=O)[C@H](CCSC)NC(=O)[C@H](CCCCN)NC(C)=O` [CDP-1] (Ac-KMDCRWRWKCCKK-OMe; C-terminus assumed), for which the “ThT signal / Aβ42 aggregation compared to Aβ42 alone” value at Aβ42 is given as “no Aβ42 aggregation was determined”. The “Aβ42 in QIAD fractions 4–5 (oligomers)” value in the data set on Aβ42 oligomers is reported as “not detected”. Also, the “sFIDA signal reduction compared with the control” value with Aβ42 aggregates is 61.1%. In the data set on SH-SY5Y cells, the “cytotoxicity in SH-SY5Y cells” value is “nontoxic”. Also, the “cytotoxicity in HEK293 cells” value in the data set on HEK293 cells is “nontoxic”.
With `COC(=O)[C@H](CCCCN)NC(=O)[C@H](CCCCN)NC(=O)[C@H](CO)NC(=O)[C@H](CO)NC(=O)[C@H](CCCCN)NC(=O)[C@H](Cc1c[nH]c2ccccc12)NC(=O)[C@H](CCCNC(=N)N)NC(=O)[C@H](Cc1c[nH]c2ccccc12)NC(=O)[C@H](CCCNC(=N)N)NC(=O)[C@H](CO)NC(=O)[C@H](CC(=O)O)NC(=O)[C@H](CCSC)NC(=O)[C@H](CCCCN)NC(C)=O` [CDP-2] (Ac-KMDSRWRWKSSKK-OMe), the “ThT signal / Aβ42 aggregation compared to Aβ42 alone” value on Aβ42 was “four times smaller”. Also, the “Aβ42 in QIAD fractions 4–5 (oligomers)” value with Aβ42 oligomers is listed as “not detected”. For the same compound, in the data set with Aβ42 aggregates, the “sFIDA signal reduction compared with the control” value came to 95.2%. Further, the “cytotoxicity in SH-SY5Y cells” value in the data set on SH-SY5Y cells was “nontoxic”. Moreover, the “cytotoxicity in HEK293 cells” value in the data set on HEK293 cells is “nontoxic”.
